Measured values reported in patent publication US20240307374A1, “FORMULATION OF FURIN INHIBITOR FOR INHALATION” (BP ASSET V, INC., priority 2021, published 2024).
In brackets after ≈: the same amount, converted by molar mass. Several values for one entry are separate records, joined by “and”; a condition that tells them apart may be missing. Equal values may be shown once. Entries after “also recorded” stand apart in the source; their conditions may differ.

How the values were obtained:
[1] = Equilibrium solubility in pH buffers (pH 4.0-6.0) with pH adjustment; assay type: physicochemical; settings: pH = 4.0 buffer (50 mM citrate), RT, with pH adjustment
Protocol: In details, ˜5 mg of solids were suspended into 1 mL of each medium with dosing conc. at ˜5 mg/mL. Additional solids were added into the sample to generate suspension if clear solution was obtained. The suspension was equilibrated via stirring (1000 rpm) for 24 hours. The pH of the suspension was adjusted when the final pH shifted above 0.3, and the samples were stirred for another 1.5 hours after pH adjustment. The suspension was centrifuged to obtain precipitate and supernatants. Solubility, purity and pH were tested for the supernatants after filtration, and isolated precipitate was tested by XRPD.
(§1) • 1. pH=3.0 buffer (50 mM HCl+KCl): Weigh 365.39 mg KCl into a 100 mL volumetric flask (VF), and add 0.1 mL 1M HCl into the VF, and dilute to volume with water. • 2. pH=4.0 buffer (50 mM citrate): Weigh 56.74 mg citric acid and 60.18 mg trisodium citrate into a 10 mL volumetric flask, and dilute to volume with water. • 3. pH=5.0 buffer (50 mM citrate) Weigh 11.12 mg citric acid and 95.38 mg trisodium citrate into a 10 mL volumetric flask, and dilute to volume with water. • 4. pH=6.0 buffer (50 mM citrate) Weigh 11.04 mg citric acid and 130.2 mg trisodium citrate into a 10 mL volumetric flask, and dilute to volume with water. • 5. pH=6.0 buffer (50 mM phosphate) Weigh 8.7 mg Na2HPO4 and 52.6 mg NaH2PO4 into a 10 mL volumetric flask, and dilute to volume with water. • 6. pH=7.0 buffer (50 mM phosphate) Weigh 23.47 mg Na2HPO4 and 43.34 mg NaH2PO4into a 10 mL volumetric flask, and dilute to volume with water. • 7. pH=8.0 buffer (50 mM phosphate) Weigh 31.64 mg Na2HPO4 and 67.18 mg NaH2PO4into a 10 mL volumetric flask, and dilute to volume with water.

[2] = pKa test, potentiometric method (pH-metric pKa); assay type: physicochemical; settings: MeOH cosolvent, Yasuda-Shedlovsky extrapolation
Protocol: (§2) The spectrophotometric method (UV-metric pKa) and potentiometric method (pH-metric pKa) were used for pKa test of Compound (I) freeform.
2. For pH-metric pKa, the pKa values were determined from an examination of the shape of the resultant titration curves and fitting a suitable theoretical model for the compound's ionization behavior onto the titration data.
(§3) The psKa values were extrapolated to 0% organic content using the Yasuda-Shedlovsky extrapolation procedure for pKa values.

[3] = Equilibrium solubility in pH buffers (3.0-8.0), 20% captisol and water; assay type: physicochemical; settings: H2O, RT, 24 hrs
Protocol: Additional solids were added into the sample to generate suspension if clear solution obtained. The suspension was equilibrated via stirring (1000 rpm). The suspension was centrifuged to obtain precipitate and supernatants.
Solubility and pH were tested for the supernatants after filtration, and isolated precipitate was tested by XRPD.
as §1

[4] = pKa test, spectrophotometric method (UV-metric pKa); assay type: physicochemical
Protocol: as §2
1. For UV-metric pKa, the pKa values were determined by monitoring the change in UV absorbance with pH as the compound undergoes ionization.
as §3

[5] = Log D7.4 test, n-octanol/aqueous (pH=7.4) shake flask method; assay type: physicochemical
Protocol: The detailed procedure is summarized below. • 1. Pre-equilibrate n-octanol and aqueous buffer by adding 10 mL n-octanol and 10 mL aqueous buffer into a glass vial and keep it rolling for 24 h. The mutually saturated n-octanol and aqueous buffer are obtained after phase separation. • 2. Weigh approximately 1.0 mg sample into a 3-mL glass vial with 1.0 mL of saturated n-octanol inside (obtained in step 1 above) and accelerate dissolution by ultrasonication. • 3. Add 1.0 mL of complementary saturated aqueous buffer into the vial. • 4. Prepare samples in triplicate. Seal the glass vial and mix on a rotary mixer at 25° C. for 24 h. • 5. The phases are separated after rolling. • 6. The concentrations of the compound in each phase are determined by HPLC. Samples in n-octanol phase are diluted 10 times by adding 100 μL of sample solution and 900 µL of ACN/H2O (v/v, 3:1) diluent and mixed well. • 7. Distribution coefficient, referred to as Dow, is calculated as the concentration of the test compound (both ionized and un-ionized) in the n-octanol phase divided by the corresponding concentration in the aqueous phase.

[6] = Phase I PK study, intranasal, cotton rats (plasma, lungs, BAL); assay type: in vivo, Sigmodon hispidus cotton rats
From the text: (§4) Fifty (50) inbred, 6-8 week old, Sigmodon hispidus female and male cotton rats (source: Sigmovir Biosystems, Inc., Rockville MD) were maintained and handled under veterinary supervision in accordance with the National Institutes of Health guidelines and Sigmovir Institutional Animal Care and Use Committee's approved animal study protocol (IACUC Protocol #15). Fifteen animals were used in Phase I and 35 animals in Phase II studies. Each group of 5 animals included 3 females (the first three animals in each group) and 2 males (the last 2 animals in each group). Groups of even number of animals included equal number of males and females. Cotton rats were housed in clear polycarbonate cages and provided with standard rodent chow (Harlan #7004) and tap water ad lib.
To prepare excipient solution, 125 mg of citric acid anhydrous and 972 mg of lactose anhydrous were dissolved in water by adding 6 ml to the powder. The solution was vortexed. Final volume was adjusted to 10 mL with water for final concentration of 65 mM citric acid anhydrous and 284 mM lactose anhydrous. The solution was stored at 4±2° C.
(§5) Step 1. Divided 15 young S. hispidus (6-8 week old) between 3 groups (3 females and 2 males per group). Eartaged, weighed, and eyebleed all animals under isoflurane anesthesia for serum and plasma. Treated all animals intranasally with the solution indicated in Table 8-1 below, 5 0 μl/100 g animal (administered in both nostrils).
(§6) Step 2. Measured weight, collected clinical observations (e.g., changes in appearance, movement, posture), and repeated treatments on all animals as in Step 1.
Step 3. Measured weight, collected clinical observations (e.g., changes in appearance, movement, posture), and repeated treatments on all animals as in Step 1.
Step 4. Measured weight, collected clinical observations (e.g., changes in appearance, movement, posture), and repeated treatments on all animals as in Step 1.
Step 5. Measured weight, collected clinical observations, and repeated treatment on all animals as described in Step 1. After 1 h Step 6, terminally bled one animal from each group, followed by the necropsy with gross pathology examination and collection of BAL (right lung) and lung samples (left lung) for the PK assessment. After 3 h Step 7, terminally bled the second animal from each group, followed by the necropsy with gross pathology examination and collection of BAL and lung samples for the PK assessment.
Step 8. Terminally bled the third animal from each group, followed by the necropsy with gross pathology examination and collection of BAL and lung samples for the PK assessment.
Step 9. […]
Step 10. Measured weight and collected clinical observations on the remaining animals. […]

[7] = Tolerability (weight, clinical observations, gross pathology) in the Phase I study; assay type: in vivo, Sigmodon hispidus cotton rats
From the text: as §4, §5, §6
Step 5. Measured weight, collected clinical observations, and repeated treatment on all animals as described in Step 1. […]

[8] = Solubility of freeform in acetone/H2O systems with various water activities; assay type: physicochemical; settings: thermodynamic from solid
Protocol: (§7) To measure the solubility of freeform in acetone/H2O systems with various water activities, the above experiments were re-performed with addition of aw=0.3 acetone/H2O system. The suspension sample was centrifuged to obtain precipitate and supernatants. Solubility was tested for the supernatants after filtration, and isolated precipitate was tested by XRPD.

[9] = Thermodynamic relationships study: slurry competition in acetone/H2O systems; assay type: physicochemical; settings: RT
Protocol: Slurry competition was conducted in acetone/H2O systems with various water activities (0.0-1.0). […] Solids were separated and tested by XRPD.
as §7
Solids were separated and tested by XRPD.

[10] = DVS (dynamic vapor sorption) moisture uptake; assay type: physicochemical
Protocol: (FIG. 5). Sample weight decreased rapidly when humidity decreased from 10% to 0%, which might be caused by loss of crystalline water.
DVS was measured via a SMS (Surface Measurement Systems) DVS Intrinsic.

[11] = XRPD before and after drying (form stability on drying); assay type: physicochemical; settings: wet cake, vacuum drying at RT for about 3 hours

With `CC(=O)NCC1CCN(Cc2cc(Oc3ccc(N4CCN(CCC(=O)O)CC4)nc3)nc(-c3cc(Cl)cc(Cl)c3)c2)CC1` [Compound (I) freeform] the “S: solubility” value [1] was over 36900 µg/mL, the pKa ([2]; read-out: pKa 1, pH-metric) was 3.41 and the pKa ([2]; read-out: pKa 2, pH-metric) was 6.99. The pKa ([2]; read-out: pKa 3, pH-metric) was 7.56, the “S: solubility” value [3] was 20 µg/mL and the pKa ([4]; 36.4% MeOH in water, MeOH concentration of 36.4%, read-out: psKa (apparent pKa 1), UV-metric) was 1.84. It also gave a pKa ([4]; 48.2% MeOH in water, MeOH concentration of 48.2%, read-out: psKa (apparent pKa 1), UV-metric) of 1.56, a pKa ([4]; 63.9% MeOH in water, MeOH concentration of 63.9%, read-out: psKa (apparent pKa 1), UV-metric) of 1.27 and a pKa ([4]; MeOH cosolvent, Yasuda-Shedlovsky extrapolation, psKa out of effective pH range 2-12, reference only, read-out: pKa 1, UV-metric) of 2.21. For the same compound, the pKa ([4]; MeOH cosolvent, Yasuda-Shedlovsky extrapolation, read-out: pKa 2, UV-metric) was 6.98, the pKa ([4]; MeOH cosolvent, Yasuda-Shedlovsky extrapolation, read-out: pKa 3, UV-metric) was 7.68 and the logD at 24 h ([5]; n-octanol/aqueous buffer (pH 7.4), n-octanol/aqueous pH 7.4, three runs, read-out: Average of LogD7.4) was 2.23. For the same compound, the LogD7.4 ([5]; n-octanol/aqueous pH 7.4, single runs 1-3) was 2.24 and 2.23, the “Average of LogD7.4” value ([5]; n-octanol/aqueous pH 7.4, three runs) was 2.23 and the “Final pH in aqueous phase” value ([5]; runs 1-3) was 7.3. The “Concentration, Oil (n-octanol phase)” value ([5]; shake flask, 25° C., 24 h, runs 1-3) was 1140 µg/mL and 1100 µg/mL and 1070 µg/mL and the “Concentration, Aqueous” value ([5]; shake flask, pH 7.4 buffer, 25° C., 24 h, runs 1-3) was 7 µg/mL and 6 µg/mL.
With `CC(=O)NCC1CCN(Cc2cc(Oc3ccc(N4CCN(CCC(=O)O)CC4)nc3)nc(-c3cc(Cl)cc(Cl)c3)c2)CC1` [Compound (I)] the “dose dependence of concentration in plasma and lungs” value ([6]; 0.1, 0.3, 1 mg/kg, highest level with 1 mg/kg 1 hr post-treatment) was “dose-dependent effect”, the “persistence of level in plasma and lungs” value ([6]; after last intranasal dose, depending on the dose) was “remained elevated for several hours” and the “detection in BALF” value ([6]; intranasal QD for 5 days, 0.1, 0.3, 1 mg/kg per day) was “much less so in BALF”. For the same compound, the “detection in plasma and lungs” value ([6]; intranasal QD for 5 days, 0.1, 0.3, 1 mg/kg per day, 1-24 h after last dose) was “detectable in the plasma and lungs”, the “noticeable effect (blood clotting)” value ([7]; highest dose 1 mg/kg/day, one animal, terminal bleed) was “apparent increase in blood clotting time in one of the animals” and the tolerability ([7]; intranasal QD for 5 consecutive days, 0.1, 0.3, 1 mg/kg per day) was “well tolerated”.
For `CC(=O)NCC1CCN(Cc2cc(Oc3ccc(N4CCN(CCC(=O)O)CC4)nc3)nc(-c3cc(Cl)cc(Cl)c3)c2)CC1` [Freeform Type B], the solubility at 2 days ([8]; acetone (aw 0), organic solvent or mixture, Acetone, aw 0, RT) was 810 µg/mL (≈ 1.26 mM), the solubility at 2 days ([8]; acetone/H2O (986:14), aw 0.2, organic solvent or mixture, Acetone/H2O (986:14), aw 0.2, RT) was 3960 µg/mL (≈ 6.18 mM) and the “water activity (aw) at which the form was obtained” value [9] was “below 0.2”. The “Moisture Uptake (DVS)” value ([10]; 25° C., from 0% RH to 80% RH) was 6.3%, the hygroscopicity ([10]; European pharmacopoeia 5.0 criteria, from DVS 0-80% RH at 25° C.) was “hygroscopic” and the “form change after DVS test (XRPD)” value ([10]; XRPD before and after DVS) was “No form change”.
In the case of `CC(=O)NCC1CCN(Cc2cc(Oc3ccc(N4CCN(CCC(=O)O)CC4)nc3)nc(-c3cc(Cl)cc(Cl)c3)c2)CC1` [Freeform Type C], the “form change on drying (XRPD)” value [11] is reported as “transformed to freeform Type A; also recorded: Transferred to freeform Type A after drying at RT”.
